# Data taken from patent US20260184675A1, “CHIRAL ISOMERIC SULFITE COMPOUND AND APPLICATION THEREOF” (Chengdu Hanova BioSciences Co., Ltd, priority 2024, published 2026).
# Values joined by “and” are separate entries in the source; they are usually repeats but may differ in a detail not shown here. Identical values can stand only once.
# Key:
# [1] = system: eggs of Panonychus citri; test: Effect on hatching of eggs of Panonychus citri, leaf disc method; assay type: in vivo; details: Panonychus citri eggs, 1 ppm; for Hatching rate (%), Replicate 1 / Hatching rate (%), Replicate 2 / Hatching rate (%), Replicate 3: 5 days after delivery; for Number of hatched larvae 5 days after insecticide delivery, Replicate 1 / Number of hatched larvae 5 days after insecticide delivery, Replicate 2 / Number of hatched larvae 5 days after insecticide delivery, Replicate 3: leaf disc
# [2] = system: eggs of Aleyrodidae; test: Effect on hatching of eggs of Aleyrodidae, leaf disc method; assay type: in vivo; details: Aleyrodidae eggs, 10 ppm; for Hatching rate (%), Replicate 1 / Hatching rate (%), Replicate 2 / Hatching rate (%), Replicate 3: 5 days after delivery; for Number of hatched larvae 5 days after insecticide delivery, Replicate 1 / Number of hatched larvae 5 days after insecticide delivery, Replicate 2 / Number of hatched larvae 5 days after insecticide delivery, Replicate 3: leaf disc
# How it was run: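 Inhibition of Aleyrodidae egg hatching was tested with a leaf disc method at 10 ppm. Egg numbers on each disc were counted under a microscope before treatment. Discs bearing eggs were soaked for 10 seconds in clear water or test solution, removed, and kept under moist conditions. Hatching was checked five days after insecticide delivery and hatched larvae were counted.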
# [3] = system: eggs of Spodoptera litura; test: Effect on hatching of eggs of Spodoptera litura, egg piece soaking; assay type: in vivo; details: Spodoptera litura eggs, 500 ppm; for Hatching rate (%), Replicate 1 / Hatching rate (%), Replicate 2 / Hatching rate (%), Replicate 3: 4 days after delivery; for Number of unhatched larvae 4 days after insecticide delivery, Replicate 1 / Number of unhatched larvae 4 days after insecticide delivery, Replicate 2 / Number of unhatched larvae 4 days after insecticide delivery, Replicate 3: soaked 10 minutes
# How it was run: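 Egg pieces of about 60 eggs were soaked 10 min in test agent at 500 ppm, blotted, then held singly at 24±1 °C, 80±10% RH, 12:12 L:D. Hatched and unhatched eggs were counted on day 4 to give hatching rate and control effect; 3 replicates.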
# [4] = system: eggs of Harmonia axyridis; test: Effect on hatching of eggs of Harmonia axyridis, egg card immersion; assay type: in vivo; details: 100 ppm; for Number of hatched larvae 4 days after insecticide delivery, Replicate 1 / Number of hatched larvae 4 days after insecticide delivery, Replicate 2 / Number of hatched larvae 4 days after insecticide delivery, Replicate 3: Harmonia axyridis egg cards, immersed 30 seconds; for Hatching rate (%), Replicate 1 / Hatching rate (%), Replicate 2 / Hatching rate (%), Replicate 3: Harmonia axyridis eggs, 4 days after delivery
# How it was run: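 Egg cards (~20 eggs each) dipped 30 s in 100 ppm insecticide, air dried and kept moist at 27° C; 5 cards per treatment, 3 replicates. Hatching assessed 4 days after treatment against pre-treatment egg counts, and control effect calculated by formula.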
# [5] = system: Magnaporthe grisea; assay type: cell-based; details: 100 ppm; for Average antifungal rate (%) / Antifungal rate of Magnaporthe grisea (%), Replicate 1 / Antifungal rate of Magnaporthe grisea (%), Replicate 2 / Antifungal rate of Magnaporthe grisea (%), Replicate 3: 96-well plate; for Average antifungal rate (%): average of 3 replicates
compound,measurement,setting,value
"CC[C@H](COS(=O)OCCF)Oc1ccc(Cl)cc1Cl (stereo partly drawn) [19′-(R,S)]","Hatching rate (%), Replicate 1",[1],10.43%
same,"Hatching rate (%), Replicate 2",[1],10.42%
same,"Hatching rate (%), Replicate 3",[1],9.57%
same,"Number of hatched larvae 5 days after insecticide delivery, Replicate 1",[1],12
same,"Number of hatched larvae 5 days after insecticide delivery, Replicate 2",[1],10
same,"Number of hatched larvae 5 days after insecticide delivery, Replicate 3",[1],9
same,"Hatching rate (%), Replicate 1",[2],10.32%
same,"Hatching rate (%), Replicate 2",[2],9.40%
same,"Hatching rate (%), Replicate 3",[2],11.49%
same,"Number of hatched larvae 5 days after insecticide delivery, Replicate 1",[2],13
same,"Number of hatched larvae 5 days after insecticide delivery, Replicate 2",[2],11
same,"Number of hatched larvae 5 days after insecticide delivery, Replicate 3",[2],10
same,"Hatching rate (%), Replicate 1",[3],51.67%
same,"Hatching rate (%), Replicate 2",[3],50.77%
same,"Hatching rate (%), Replicate 3",[3],50.00%
same,"Number of unhatched larvae 4 days after insecticide delivery, Replicate 1",[3],30
same,"Number of unhatched larvae 4 days after insecticide delivery, Replicate 2",[3],32
same,"Number of unhatched larvae 4 days after insecticide delivery, Replicate 3",[3],27
same,"Number of hatched larvae 4 days after insecticide delivery, Replicate 1",[4],11
same,"Number of hatched larvae 4 days after insecticide delivery, Replicate 2",[4],10
same,"Number of hatched larvae 4 days after insecticide delivery, Replicate 3",[4],9
same,"Hatching rate (%), Replicate 1",[4],10.28%
same,"Hatching rate (%), Replicate 2",[4],10.53%
same,"Hatching rate (%), Replicate 3",[4],9.78%
same,inhibitory rate against Magnaporthe grisea (in words),[5],strong inhibitory rate
same,Average antifungal rate (%),[5],97.19% and 86.12%
same,"Antifungal rate of Magnaporthe grisea (%), Replicate 1",[5],85.69%
same,"Antifungal rate of Magnaporthe grisea (%), Replicate 2",[5],86.41%
same,"Antifungal rate of Magnaporthe grisea (%), Replicate 3",[5],86.27%
"CC[C@@H](COS(=O)OCCF)Oc1ccc(Cl)cc1Cl (stereo partly drawn) [19′-(S,R)]","Hatching rate (%), Replicate 1","[1]; listed as 19′-(S, R)",9.57%
same,"Hatching rate (%), Replicate 2","[1]; listed as 19′-(S, R)",10.28%
same,"Hatching rate (%), Replicate 3","[1]; listed as 19′-(S, R)",10.08%
same,"Number of hatched larvae 5 days after insecticide delivery, Replicate 1","[1]; listed as 19′-(S, R)",9
same,"Number of hatched larvae 5 days after insecticide delivery, Replicate 2","[1]; listed as 19′-(S, R)",11
same,"Number of hatched larvae 5 days after insecticide delivery, Replicate 3","[1]; listed as 19′-(S, R)",12
same,"Hatching rate (%), Replicate 1","[2]; listed as 19′-(S, R)",10.53%
same,"Hatching rate (%), Replicate 2","[2]; listed as 19′-(S, R)",10.24%
same,"Hatching rate (%), Replicate 3","[2]; listed as 19′-(S, R)",10.20%
same,"Number of hatched larvae 5 days after insecticide delivery, Replicate 1","[2]; listed as 19′-(S, R)",10
same,"Number of hatched larvae 5 days after insecticide delivery, Replicate 2","[2]; listed as 19′-(S, R)",13
same,"Number of hatched larvae 5 days after insecticide delivery, Replicate 3","[2]; listed as 19′-(S, R)",10
same,"Hatching rate (%), Replicate 1","[3]; listed as 19′-(S, R)",53.57%
same,"Hatching rate (%), Replicate 2","[3]; listed as 19′-(S, R)",53.23%
same,"Hatching rate (%), Replicate 3","[3]; listed as 19′-(S, R)",53.73%
same,"Number of unhatched larvae 4 days after insecticide delivery, Replicate 1","[3]; listed as 19′-(S, R)",26
same,"Number of unhatched larvae 4 days after insecticide delivery, Replicate 2","[3]; listed as 19′-(S, R)",29
same,"Number of unhatched larvae 4 days after insecticide delivery, Replicate 3","[3]; listed as 19′-(S, R)",31
same,"Number of hatched larvae 4 days after insecticide delivery, Replicate 1","[4]; listed as 19′-(S, R)",10
same,"Number of hatched larvae 4 days after insecticide delivery, Replicate 2","[4]; listed as 19′-(S, R)",10
same,"Number of hatched larvae 4 days after insecticide delivery, Replicate 3","[4]; listed as 19′-(S, R)",11
same,"Hatching rate (%), Replicate 1","[4]; listed as 19′-(S, R)",10.42%
same,"Hatching rate (%), Replicate 2","[4]; listed as 19′-(S, R)",9.35%
same,"Hatching rate (%), Replicate 3","[4]; listed as 19′-(S, R)",9.82%
same,inhibitory rate against Magnaporthe grisea (in words),[5],strong inhibitory rate
same,Average antifungal rate (%),[5],86.23%
same,"Antifungal rate of Magnaporthe grisea (%), Replicate 1",[5],86.44%
same,"Antifungal rate of Magnaporthe grisea (%), Replicate 2",[5],85.97%
same,"Antifungal rate of Magnaporthe grisea (%), Replicate 3",[5],86.28%
